Results from ChEMBL document CHEMBL5380831, “Azolylpyrimidinediols as Novel Structural Scaffolds of DNA-Groove Binders against Intractable Acinetobacter baumannii” (J Med Chem, 2023).
Converted amounts (≈) assume the structure as drawn. The source made the active and inactive calls. No cut-off for these calls is given here.

Experiments:
Calf thymus DNA [1] = assay: Binding affinity to calf thymus DNA assessed as binding constant, K by absorbance based assay; format: nucleic-acid assay; conditions: Bos taurus
Escherichia coli [2] = assay: Antibacterial activity against Escherichia coli ATCC 25922 assessed as bacterial growth inhibition incubated for 24 hrs by broth microdilution method; format: functional
[3] = AUC (0 to t) in Kunming mouse at 10 mg/kg, po measured upto 24 hrs by LC-MS analysis; format: ADME, organism-based; set-up: time < 24 hrs, dose 10 mg/kg, route po; conditions: in vivo
Erythrocyte [4] = assay: Hemolytic activity against human RBC assessed as change in cell morphology at 512 times MIC measured after 8 hrs by microscopic analysis; format: toxicity, cell-based
[5] = Hemolytic activity in human RBC at 512 times MIC measured after 8 hrs by absorbance based assay relative to control; format: toxicity, cell-based, Erythrocyte; conditions: red blood cells (erythrocytes), read-out: Activity
[6] = MRT (0 to t) in Kunming mouse at 10 mg/kg, iv measured upto 24 hrs by LC-MS analysis; format: ADME, organism-based; conditions: in vivo
Acinetobacter baumannii [7] = assay: Antibiofilm activity against Acinetobacter baumannii assessed as biofilm eradication at 0.016 mmol/L incubated for 24 hrs by crystal violet staining based analysis relative to control; format: functional
[8] = Volume of distribution in Kunming mouse at 10 mg/kg, po measured upto 24 hrs by LC-MS analysis; format: ADME, organism-based; conditions: in vivo
Calf thymus DNA [9] = assay: Binding affinity to calf thymus DNA incubated for 5 mins by acridine orange displacement assay; format: nucleic-acid assay; conditions: Bos taurus
Calf thymus DNA [10] = assay: Induction of calf thymus DNA cleavage at 0.05 mmol/L incubated for 6 hrs in presence of Cu2+ by agarose gel electrophoresis method; format: nucleic-acid assay; conditions: Bos taurus
Calf thymus DNA [11] = assay: Induction of calf thymus DNA cleavage at 0.05 mmol/L incubated for 6 hrs in presence of Zn(NO3)2 by agarose gel electrophoresis method; format: nucleic-acid assay; conditions: Bos taurus
Calf thymus DNA [12] = assay: Binding affinity to calf thymus DNA incubated for 5 mins by DAPI displacement assay; format: nucleic-acid assay; conditions: Bos taurus
[13] = Hemolytic activity in human RBC assessed as cell viability upto 256 ug/ml measured for 1 to 8 hrs by absorbance based assay relative to control; format: toxicity, Erythrocyte; conditions: red blood cells (erythrocytes), time 1-8 hrs, dose < 256 µg/ml, read-out: Activity
Acinetobacter baumannii [14] = assay: Antibacterial activity against Acinetobacter baumannii infected in mouse assessed as log reduction in viable bacterial count at 10 mg/kg measured for 12 hrs; format: functional
Cell membrane [15] = assay: Induction of outer membrane damage in Acinetobacter baumannii at 1 to 8 times MIC incubated for 30 mins by fluorescence based assay
Calf thymus DNA [16] = assay: Induction of calf thymus DNA cleavage at 0.05 mmol/L incubated for 6 hrs in presence of Zn2+ by agarose gel electrophoresis method; format: nucleic-acid assay; conditions: Bos taurus
Staphylococcus aureus [17] = assay: Antibacterial activity against methicillin-resistant Staphylococcus aureus assessed as bacterial growth inhibition incubated for 24 hrs by broth microdilution method; format: functional
[18] = AUC (0 to infinity) in Kunming mouse at 10 mg/kg, po measured upto 24 hrs by LC-MS analysis; format: ADME, organism-based; set-up: dose 10 mg/kg, time < 24 hrs, route po; conditions: in vivo
Staphylococcus aureus [19] = assay: Antibacterial activity against Staphylococcus aureus ATCC 25923 assessed as bacterial growth inhibition incubated for 24 hrs by broth microdilution method; format: functional
Calf thymus DNA [20] = assay: Binding affinity to calf thymus DNA incubated overnight in presence of sodium chloride by sodium ion-quenching assay; format: nucleic-acid assay; conditions: Bos taurus
Staphylococcus aureus [21] = assay: Antibacterial activity against Staphylococcus aureus assessed as bacterial growth inhibition incubated for 24 hrs by broth microdilution method; format: functional
[22] = Cytotoxicity against HEK293T cells assessed as cell viability at 0.256 mmol/L measured after 24 hrs by MTT assay relative to control; format: toxicity, cell-based, HEK-293T; conditions: human, read-out: Activity
[23] = MRT (0 to infinity) in Kunming mouse at 10 mg/kg, po measured upto 24 hrs by LC-MS analysis; format: ADME, organism-based; conditions: in vivo
[24] = Tmax in Kunming mouse at 10 mg/kg, iv measured upto 24 hrs by LC-MS analysis; format: ADME, organism-based; conditions: in vivo
[25] = AUC (0 to infinity) in Kunming mouse at 10 mg/kg, iv measured upto 24 hrs by LC-MS analysis; format: ADME, organism-based; set-up: dose 10 mg/kg, time < 24 hrs, route iv; conditions: in vivo
Escherichia coli [26] = assay: Antibacterial activity against Escherichia coli assessed as bacterial growth inhibition incubated for 24 hrs by broth microdilution method; format: functional
[27] = Cytotoxicity against human L02 cells assessed as cell viability upto 0.128 mmol/L measured after 24 hrs by MTT assay relative to control; format: toxicity, cell-based; conditions: up to 0.128 mM, read-out: Activity
[28] = Half life in Kunming mouse at 10 mg/kg, iv measured upto 24 hrs by LC-MS analysis; format: ADME, organism-based; conditions: in vivo
Acinetobacter baumannii [29] = assay: Antibiofilm activity against Acinetobacter baumannii assessed as increase in biofilm eradication incubated for 24 hrs by crystal violet staining based analysis; format: functional, organism-based
[30] = AUMC (0 to infinity) in Kunming mouse at 10 mg/kg, iv measured upto 24 hrs by LC-MS analysis; format: ADME, organism-based; conditions: in vivo
Enterococcus faecalis = assay: Antibacterial activity against Enterococcus faecalis assessed as bacterial growth inhibition incubated for 24 hrs by broth microdilution method; format: functional
Acinetobacter baumannii [31] = assay: Antibacterial activity against Acinetobacter baumannii assessed as reduction in metabolic activity incubated for 6 hrs by alamar blue staining based assay; format: functional, organism-based
Calf thymus DNA [32] = assay: Induction of calf thymus DNA cleavage at 0.05 mmol/L incubated for 6 hrs by agarose gel electrophoresis method; format: nucleic-acid assay; conditions: Bos taurus
[33] = Clearance in Kunming mouse at 10 mg/kg, po measured upto 24 hrs by LC-MS analysis; format: ADME, organism-based; conditions: in vivo
[34] = Tmax in Kunming mouse at 10 mg/kg, po measured upto 24 hrs by LC-MS analysis; format: ADME, organism-based; conditions: in vivo
Staphylococcus aureus [35] = assay: Antibacterial activity against Staphylococcus aureus ATCC 29213 assessed as bacterial growth inhibition incubated for 24 hrs by broth microdilution method; format: functional
[36] = Oral bioavailability in Kunming mouse at 10 mg/kg measured upto 24 hrs by LC-MS analysis; format: ADME, organism-based; conditions: in vivo
Calf thymus DNA [37] = assay: Induction of calf thymus DNA cleavage at 0.05 mmol/L incubated for 6 hrs in presence of Cu(NO3)2 by agarose gel electrophoresis method; format: nucleic-acid assay; conditions: Bos taurus
Calf thymus DNA [38] = assay: Binding affinity to calf thymus DNA assessed as compound-DNA complex formation by absorbance based assay; format: nucleic-acid assay; conditions: Bos taurus
[39] = Hemolytic activity in human RBC at effective concentration measured after 1 hr by absorbance based assay relative to control; format: toxicity, cell-based, Erythrocyte; conditions: red blood cells (erythrocytes), read-out: Activity
Acinetobacter baumannii [40] = assay: Antibacterial activity against Acinetobacter baumannii assessed as bacterial growth inhibition incubated for 24 hrs by broth microdilution method; format: functional
Erythrocyte [41] = assay: Hemolytic activity in human RBC at greater than MIC measured for 2 to 4 hrs by absorbance based assay; format: toxicity, cell-based; conditions: time 2-4 hrs
Acinetobacter baumannii [42] = assay: Antibacterial activity against Acinetobacter baumannii assessed as decrease in LDH activity incubated for 6 hrs by LDH assay; format: functional, organism-based
Cell membrane [43] = assay: Induction of inner membrane damage in Acinetobacter baumannii at 1 to 8 times MIC incubated for 30 mins by fluorescence based assay
[44] = Cmax in Kunming mouse at 10 mg/kg, iv measured upto 24 hrs by LC-MS analysis; format: ADME, organism-based; set-up: dose 10 mg/kg, time < 24 hrs, route iv; conditions: in vivo
Pseudomonas aeruginosa [45] = assay: Antibacterial activity against Pseudomonas aeruginosa assessed as bacterial growth inhibition incubated for 24 hrs by broth microdilution method; format: functional
[46] = AUMC (0 to t) in Kunming mouse at 10 mg/kg, iv measured upto 24 hrs by LC-MS analysis; format: ADME, organism-based; conditions: in vivo
Pseudomonas aeruginosa [47] = assay: Antibacterial activity against Pseudomonas aeruginosa ATCC 27853 assessed as bacterial growth inhibition incubated for 24 hrs by broth microdilution method; format: functional

With `OCCN(CCO)c1nccc(-n2cncn2)n1` the K (Calf thymus DNA [1]) was 1.7 10^3L/mol, the MIC (Escherichia coli [2]) was 1 µM (≈ 0.25 µg/mL) and the AUC(0-t) at 24 h [3] was 7870 ng·h/mL. For the same compound, the Activity (Erythrocyte [4]) was “Non-Toxic”, the hemolysis at 8 h, 512 times MIC [5] was 1.5% and the MRT last at 24 h [6] was 2.61 h. The Activity (Acinetobacter baumannii [7]) was 39.1%, the Vd [8] was 7890 mL/kg and the Activity (Calf thymus DNA [9]) was “inactive”. The Activity (Calf thymus DNA [10]) was “inactive”, the Activity (Calf thymus DNA [11]) was “inactive” and the Activity (Calf thymus DNA [12]) was “Dose-Dependent Effect”. For the same compound, the viability [13] was over 99%, the “log(activity)” value (Acinetobacter baumannii [14]) was 1.6 and the Activity (Cell membrane [15]) was “inactive”. The Activity (Calf thymus DNA [16]) was “inactive”, the MIC (Staphylococcus aureus [17]) was 1020 µM (≈ 256 µg/mL) and the AUC [18] was 8073 ng·h/mL. For the same compound, the MIC (Staphylococcus aureus [19]) was 128 µM (≈ 32 µg/mL), the Activity (Calf thymus DNA [20]) was “Active” and the MIC (Staphylococcus aureus [21]) was 512 µM (≈ 128 µg/mL). For the same compound, the viability at 24 h, 256 µM [22] was 80%, the MRT inf [23] was 4.67 h and the Tmax [24] was 1.98 min. For the same compound, the AUC [25] was 2281 ng·h/mL, the MIC (Escherichia coli [26]) was 1020 µM (≈ 256 µg/mL) and the viability at 24 h [27] was 85%. The half-life [28] was 167 min, the Activity (Acinetobacter baumannii [29]) was “Dose-Dependent Effect” and the AUMC [30] was 8598 hr.hr.ng/ml. The MIC (Enterococcus faecalis) was 8 µM (≈ 2 µg/mL), the Activity (Acinetobacter baumannii [31]) was “Dose-Dependent Effect” and the Activity (Calf thymus DNA [32]) was “inactive”. It also gave a CL/F [33] of 20.7 mL/min/kg, a Tmax [34] of 34.8 min and an MIC (Staphylococcus aureus [35]) of 1020 µM (≈ 256 µg/mL). The F [36] was 35.41%, the Activity (Calf thymus DNA [37]) was “inactive” and the Activity (Calf thymus DNA [38]) was “Active”. For the same compound, the hemolysis at 1 h [39] was under 5%, the MIC (Acinetobacter baumannii [40]) was 2 µM (≈ 0.501 µg/mL) and the Activity (Erythrocyte [41]) was “Non-Toxic”. The Activity (Acinetobacter baumannii [42]) was “Dose-Dependent Effect”, the Activity (Cell membrane [43]) was “inactive” and the Cmax [44] was 1990 ng/mL. The MIC (Pseudomonas aeruginosa [45]) was 1 µM (≈ 0.25 µg/mL), the AUMCt [46] was 5446 hr.hr.ng/ml and the MIC (Pseudomonas aeruginosa [47]) was 512 µM (≈ 128 µg/mL).
